US20050153947A1, “Methods and reagents for the treatment of diseases and disorders associated with increased levels of proinflammatory cytokines” (priority 2002, published 2005)
Like-named read-outs stand apart in the source and are kept apart here.

Assays:
IL-2 = IL-2 secretion by white blood cells/PBMC stimulated with phorbol 12-myristate 13-acetate and ionomycin (PI), ELISA; conditions: for percent inhibition of cytokine secretion, IL-2: concentration (μM)
Procedure: (§1) Various concentrations of each test compound were added at the time of stimulation. […] After the plate was washed with 0.1% Tween 20/PBS, an HRP-luminescent substrate was added to each well and light intensity measured using a LJL Analyst plate luminometer.
(§2) Single agents were tested for the ability to suppress secretion of IFNγ, IL-1β, IL-2, and TNFα from stimulated white blood cells, and the percent inhibition of cytokine secretion, relative to untreated stimulated white blood cells, was determined.

IL-4 = IL-4 secretion, buffy coat assay supernatant, Cytometric 6 Bead Array; conditions: Homo sapiens, read-out: IL-4 % Inhibition
Procedure: (§3) Analysis of IL-4 and IL-5 cytokine expression was performed using the BD PharMingen Cytometric 6 Bead Array system according to the manufacturer's instructions. Briefly, the supernatant from a buffy coat assay plate wa incubated with the labeled cytokine detection bead cocktail. The samples were then washed, resuspended and read on the BD Pharmingen FACsCalibur flow cytometer. Data was then analyzed using the BD Pharmingen CBA 6 Bead Analysis software.

IL-5 = IL-5 secretion, buffy coat assay supernatant, Cytometric 6 Bead Array; conditions: Homo sapiens, read-out: IL-5 % Inhibition
Procedure: as §3

IL-1β = IL-1β secretion by white blood cells stimulated with lipopolysaccharide, ELISA; type: cell-based, human
Procedure: as §1, §2

TNFα [1] = test: TNFα secretion by white blood cells stimulated with lipopolysaccharide (LPS), ELISA; type: cell-based, human; conditions: concentration (μM)
Procedure: as §1, §2

TNFα [2] = test: TNFα secretion by white blood cells/PBMC stimulated with phorbol 12-myristate 13-acetate and ionomycin (PI), ELISA; conditions: concentration (μM)
Procedure: as §1, §2

TNFα [3] = test: TNFα secretion by stimulated white blood cells, SSRI/corticosteroid combination matrices (Example 4, stimulus not given); type: cell-based; conditions: Homo sapiens, read-out: percent inhibition of TNFα secretion; for inhibition at 0.003 µM: prednisolone 0.003 μM; for inhibition at 0.006 µM: prednisolone 0.006 μM; for inhibition at 0.05 µM: prednisolone 0.050 μM; for inhibition at 0.1 µM: prednisolone 0.100 μM; for inhibition at 0.2 µM: prednisolone 0.200 μM
[4] = Homo sapiens, PBMC, read-out: % Inhibition IL-2 PBMC PI
[5] = paroxetine alone, 27.00 to 0.03
[6] = citalopram alone, 20.00 to 0.01
[7] = norfluoxetine alone, 45.00 to 0.02
[8] = R(+) fluoxetine alone, 58 to 0.028
[9] = fluoxetine alone, 29.00 to 0.01
[10] = S(+) fluoxetine alone, 58 to 0.028
[11] = fluoxetine concentration (μM), 7.230 to 0.000
[12] = paroxetine concentration (μM), 6.000 to 0.000

Fc1ccc([C@@H]2CCNC[C@H]2COc2ccc3c(c2)OCO3)cc1 [Paroxetine]
inhibition at 18 µM (IL-2; [4]): 54.2%
inhibition at 36 µM (IL-2; [4]): 83.5%
inhibition at 72 µM (IL-2; [4]): 95.7%
percent inhibition of cytokine secretion, IL-2 (IL-2; [5]): 0%
inhibition at 28 µM (IL-4): 97.1%
inhibition at 28 µM (IL-5): 97.8%
percent inhibition of cytokine secretion, IL-1β (IL-1β; paroxetine alone, concentration (μM) in c4 of the same row, 53.00 to 0.05): 0%
percent inhibition of cytokine secretion, TNFα (LPS) (TNFα [1]; [5]): 0%
percent inhibition of cytokine secretion, TNFα (PI) (TNFα [2]; [5]): 0%

COCCCC/C(=N\OCCN)c1ccc(C(F)(F)F)cc1 [Fluvoxamine]
inhibition at 5 µM (IL-2; [4]): 3.6%
inhibition at 10 µM (IL-2; [4]): 8.1%
inhibition at 20 µM (IL-2; [4]): 22%
percent inhibition of cytokine secretion, IL-1β (IL-1β; fluvoxamine alone, concentration (μM), 63 to 0.031): 0%
percent inhibition of cytokine secretion, TNFα (LPS) (TNFα [1]; fluvoxamine alone, 63 to 0.031): 0%
percent inhibition of cytokine secretion, TNFα (PI) (TNFα [2]; fluvoxamine alone, 63 to 0.031): 0%

CN(C)CCCC1(c2ccc(F)cc2)OCc2cc(C#N)ccc21 (stereo not shown) [Citalopram]
percent inhibition of cytokine secretion, IL-2 (IL-2; [6]): 0%
percent inhibition of cytokine secretion, TNFα (PI) (TNFα [2]; [6]): 0%

NCCC(Oc1ccc(C(F)(F)F)cc1)c1ccccc1 (stereo not shown) [Norfluoxetine, norfluoxetine]
percent inhibition of cytokine secretion, IL-2 (IL-2; [7]): 0%
percent inhibition of cytokine secretion, IL-1β (IL-1β; norfluoxetine alone, concentration (μM), 45.00 to 0.02): 0%
percent inhibition of cytokine secretion, TNFα (LPS) (TNFα [1]; [7]): 0%
percent inhibition of cytokine secretion, TNFα (PI) (TNFα [2]; [7]): 0%

CNCC[C@@H](Oc1ccc(C(F)(F)F)cc1)c1ccccc1 [R(+) Fluoxetine]
percent inhibition of cytokine secretion, IL-2 (IL-2; [8]): 0%
percent inhibition of cytokine secretion, IL-1β (IL-1β; R(+) fluoxetine alone, concentration (μM), 58 to 0.028): 0%
percent inhibition of cytokine secretion, TNFα (LPS) (TNFα [1]; [8]): 0%
percent inhibition of cytokine secretion, TNFα (PI) (TNFα [2]; [8]): 0%

CNCCC(Oc1ccc(C(F)(F)F)cc1)c1ccccc1 (stereo not shown) [Fluoxetine]
inhibition at 10 µM (IL-2; [4]): 16.1%
inhibition at 21 µM (IL-2; [4]): 47.4%
inhibition at 42 µM (IL-2; [4]): 90.3%
inhibition at 84 µM (IL-2; [4]): 103%
percent inhibition of cytokine secretion, IL-2 (IL-2; [9]): 0%
percent inhibition of cytokine secretion, IL-1β (IL-1β; fluoxetine alone, concentration (μM), 29.00 to 0.01): 0%
percent inhibition of cytokine secretion, TNFα (LPS) (TNFα [1]; [9]): 0%
percent inhibition of cytokine secretion, TNFα (PI) (TNFα [2]; [9]): 6%

CNCC[C@H](Oc1ccc(C(F)(F)F)cc1)c1ccccc1 [S(+) Fluoxetine]
percent inhibition of cytokine secretion, IL-2 (IL-2; [10]): 0%
percent inhibition of cytokine secretion, IL-1β (IL-1β; S(+) fluoxetine alone, concentration (μM), 58 to 0.028): 0%
percent inhibition of cytokine secretion, TNFα (LPS) (TNFα [1]; [10]): 0%
percent inhibition of cytokine secretion, TNFα (PI) (TNFα [2]; [10]): 0%

C[C@@H]1C[C@H]2[C@@H]3CCC4=CC(=O)C=C[C@]4(C)[C@@]3(F)[C@@H](O)C[C@]2(C)[C@@]1(O)C(=O)CO [Dexamethasone, dexamethasone]
inhibition at 0.0004 µM (TNFα [3]; dexamethasone 0.0004 μM, paroxetine concentration (μM), 0 to 6.000): 2.1%
inhibition at 0.0006 µM (TNFα [3]; dexamethasone 0.0006 μM, fluoxetine concentration (μM), 0 to 0.580): -3.8%
inhibition at 0.0008 µM (TNFα [3]; dexamethasone 0.0008 μM, paroxetine concentration (μM), 0 to 6.000): 6.7%

CCCC1O[C@@H]2C[C@H]3[C@@H]4CCC5=CC(=O)C=C[C@]5(C)[C@H]4[C@@H](O)C[C@]3(C)[C@]2(C(=O)CO)O1 (stereo partly shown) [Budesonide, budesonide]
inhibition at 0.0005 µM (TNFα [3]; budesonide 0.0005 μM, fluoxetine concentration (μM), 0 to 0.580): -2.4%
inhibition at 0.002 µM (TNFα [3]; budesonide 0.002 μM, fluoxetine concentration (μM), 0 to 0.580): -8.9%
inhibition at 0.009 µM (TNFα [3]; budesonide 0.009 μM, fluoxetine concentration (μM), 0 to 0.580): 5.3%

C[C@]12C=CC(=O)C=C1CC[C@@H]1[C@@H]2[C@@H](O)C[C@@]2(C)[C@H]1CC[C@]2(O)C(=O)CO [Prednisolone, prednisolone]
inhibition at 1 µM (IL-4): 47.8%
inhibition at 1 µM (IL-5): 75.5%
inhibition at 0.5 µM (TNFα [3]; Prednisolone 0.500 μM alone): 29.1%
inhibition at 1 µM (TNFα [3]; Prednisolone 1.0000 μM alone): 34%
inhibition at 0.0008 µM (TNFα [3]; prednisolone 0.0008 μM, fluoxetine concentration (μM), 7.230 to 0.000): 3.8%
inhibition at 0.003 µM (TNFα [3]; [11]): 4.4%
inhibition at 0.003 µM (TNFα [3]; [12]): -0.1%
inhibition at 0.006 µM (TNFα [3]; [11]): 7%
inhibition at 0.006 µM (TNFα [3]; [12]): 4.6%
inhibition at 0.05 µM (TNFα [3]; [11]): 24.3%
inhibition at 0.05 µM (TNFα [3]; [12]): 23.4%
inhibition at 0.1 µM (TNFα [3]; [11]): 31.6%
inhibition at 0.1 µM (TNFα [3]; [12]): 29.4%
inhibition at 0.2 µM (TNFα [3]; [11]): 39.7%
inhibition at 0.2 µM (TNFα [3]; [12]): 34.1%
inhibition at 0.4 µM (TNFα [3]; prednisolone 0.400 μM, paroxetine concentration (μM), 6.000 to 0.000): 36.2%
inhibition at 0.5 µM (TNFα [3]; prednisolone 0.500 μM, fluoxetine concentration (μM), 0 to 29.00): 39%
inhibition at 0.5 µM (TNFα [3]; prednisolone 0.500 μM, paroxetine concentration (μM), 0 to 27.00): 35.4%
inhibition at 1 µM (TNFα [3]; prednisolone 1.0000 μM, fluoxetine concentration (μM), 0 to 29.00): 35.1%
inhibition at 1 µM (TNFα [3]; prednisolone 1.0000 μM, paroxetine concentration (μM), 0 to 27.00): 38.6%

COc1ccc(C(CN(C)C)C2(O)CCCCC2)cc1 (stereo not shown) [Venlafaxine]
percent inhibition of cytokine secretion, TNFα (LPS) (TNFα [1]; venlafaxine alone, 39.83 to 0.02): 3.33%
